Source: ChEMBL document CHEMBL1201862, “PubChem BioAssay data set” (2004)
Each block holds one molecule with its values, some of them ahead of it. The source made the active and inactive calls.

Legend:
Cytochrome P450 2C19 = Cytochrome P450 2C19 (Homo sapiens, UniProt P33261); test: Cytochrome panel assay with activity outcomes. Panel member name: p450-cyp2c19 Compounds with AC50 equal or less than 10 uM are considered active; assay type: functional; details: read-out: AC50
[1] = molecular target: Protein-tyrosine kinase 2-beta (Homo sapiens, UniProt Q14289);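 also: potency of inhibitors of PYK2 kinase phosphorylation of poly-GT substrate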
Cytochrome P450 3A4 = Cytochrome P450 3A4 (Homo sapiens, UniProt P08684);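 also: CYP3A4 tested as one member of a cytochrome P450 panel screen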
Prothrombin = Prothrombin (Homo sapiens, UniProt P00734); test: Thrombin 1536 HTS Dose Response Confirmation. [Related pubchem assays: 1046 (Thrombin 1536 HTS; hits were confirmed in this assay)]; assay type: functional
fMet-Leu-Phe receptor = molecular target: T1, fMet-Leu-Phe receptor (Homo sapiens, UniProt P21462); test: formyl peptide receptor binders – dose response (AID 519); assay type: functional
T1 sequence (P21462 whole entry): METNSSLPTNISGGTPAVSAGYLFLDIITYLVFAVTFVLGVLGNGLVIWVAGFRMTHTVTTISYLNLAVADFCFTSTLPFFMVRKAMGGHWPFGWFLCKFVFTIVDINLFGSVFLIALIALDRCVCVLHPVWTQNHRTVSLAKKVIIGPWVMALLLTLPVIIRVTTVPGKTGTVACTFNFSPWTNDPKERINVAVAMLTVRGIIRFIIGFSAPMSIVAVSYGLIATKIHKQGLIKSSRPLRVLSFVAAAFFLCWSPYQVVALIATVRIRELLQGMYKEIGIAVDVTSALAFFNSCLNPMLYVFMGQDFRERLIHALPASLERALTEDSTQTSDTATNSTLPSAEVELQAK

[2] = molecular target: T2, Lysosomal acid glucosylceramidase (Homo sapiens, UniProt P04062); test: Dose response cell-based high throughput screening assay to identify enhancers of beta-glucosidase activity. [Related pubchem assays: 784 ]; assay type: functional
T2 sequence (P04062 whole entry): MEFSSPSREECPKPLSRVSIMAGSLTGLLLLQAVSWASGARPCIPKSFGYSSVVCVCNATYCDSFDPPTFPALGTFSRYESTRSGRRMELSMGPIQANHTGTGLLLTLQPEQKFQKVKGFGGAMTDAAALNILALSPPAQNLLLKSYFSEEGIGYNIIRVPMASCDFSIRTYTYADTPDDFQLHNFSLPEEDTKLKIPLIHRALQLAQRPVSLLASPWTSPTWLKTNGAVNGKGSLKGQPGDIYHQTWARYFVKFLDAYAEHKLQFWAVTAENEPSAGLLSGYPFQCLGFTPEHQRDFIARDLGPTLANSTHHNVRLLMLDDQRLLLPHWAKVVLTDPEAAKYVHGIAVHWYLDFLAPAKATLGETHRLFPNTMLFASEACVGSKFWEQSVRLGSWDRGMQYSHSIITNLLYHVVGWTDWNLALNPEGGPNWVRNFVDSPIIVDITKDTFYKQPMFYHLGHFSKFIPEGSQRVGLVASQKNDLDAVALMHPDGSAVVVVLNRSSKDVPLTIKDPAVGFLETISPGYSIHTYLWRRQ

Cytochrome P450 1A2 = molecular target: T3, Cytochrome P450 1A2 (Homo sapiens, UniProt P05177);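 also: PubChem cytochrome P450 panel assay, CYP1A2 panel member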
T3 sequence (P05177 whole entry): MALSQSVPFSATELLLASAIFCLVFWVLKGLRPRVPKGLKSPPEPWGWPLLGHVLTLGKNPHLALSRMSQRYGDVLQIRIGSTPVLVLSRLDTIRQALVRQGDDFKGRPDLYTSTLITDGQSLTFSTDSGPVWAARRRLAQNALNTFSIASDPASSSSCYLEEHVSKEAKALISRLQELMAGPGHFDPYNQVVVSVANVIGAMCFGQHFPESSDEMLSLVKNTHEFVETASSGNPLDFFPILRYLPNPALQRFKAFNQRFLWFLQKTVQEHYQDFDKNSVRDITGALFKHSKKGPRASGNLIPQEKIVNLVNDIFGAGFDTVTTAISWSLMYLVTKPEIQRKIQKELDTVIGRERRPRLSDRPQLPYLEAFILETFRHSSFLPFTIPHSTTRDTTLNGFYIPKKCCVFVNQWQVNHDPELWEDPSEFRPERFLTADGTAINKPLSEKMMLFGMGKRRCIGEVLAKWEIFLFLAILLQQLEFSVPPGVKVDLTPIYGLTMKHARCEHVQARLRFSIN

[3] = molecular target: Heat shock protein HSP 90-alpha (Homo sapiens, UniProt P07900); test: Luminescence-based dose response biochemical high throughput screening assay for inhibitors of the Heat Shock Protein 90 (HSP90). [Related pubchem assays: 1831 (Summary AID.), 1846 (Confirmation screen.), 1789 (Primary screen.)]
[4] = molecular target: T4, Luciferin 4-monooxygenase (Photinus pyralis, UniProt P08659); test: Counter Screen for Luciferase-based Assay Positives. [Related pubchem assays: 620, 618, 411 ]
[5] = molecular target: T4, Luciferin 4-monooxygenase; test: inhibition of purified Photinus pyralis luciferase – biochemical, luminescence, dose response (AID 1891)
HT-1080 = test: HT1080 cell viability loss – fluorescence readout (AID 620); assay type: functional, cell-based; details: Homo sapiens
[6] = Luminescence Cell-Based Dose Confirmation HTS to Identify Inhibitors of Platelet Dense Granule Release. [Related pubchem assays: 1663 (Primary HTS), 1678 (Summary of Project)]; assay type: functional
Ion channel NompC = Ion channel NompC (Danio rerio, UniProt Q7T1G6); test: Fluorescence counterscreen assay for TRPML3 agonists: dose response cell-based high-throughput screening assay to identify agonists of the transient receptor potential channel N1 (TRPN1). [Related pubchem assays: 1526, 1424, 1448 ]; assay type: functional
Mucolipin-3 = molecular target: T5, Mucolipin-3 (Homo sapiens, UniProt Q8TDD5); test: Dose response cell-based high-throughput screening assay for agonists of the transient receptor potential channel ML3 (TRPML3). [Related pubchem assays: 1526, 1424, 1448 ]; assay type: functional
T5 sequence (Q8TDD5 whole entry): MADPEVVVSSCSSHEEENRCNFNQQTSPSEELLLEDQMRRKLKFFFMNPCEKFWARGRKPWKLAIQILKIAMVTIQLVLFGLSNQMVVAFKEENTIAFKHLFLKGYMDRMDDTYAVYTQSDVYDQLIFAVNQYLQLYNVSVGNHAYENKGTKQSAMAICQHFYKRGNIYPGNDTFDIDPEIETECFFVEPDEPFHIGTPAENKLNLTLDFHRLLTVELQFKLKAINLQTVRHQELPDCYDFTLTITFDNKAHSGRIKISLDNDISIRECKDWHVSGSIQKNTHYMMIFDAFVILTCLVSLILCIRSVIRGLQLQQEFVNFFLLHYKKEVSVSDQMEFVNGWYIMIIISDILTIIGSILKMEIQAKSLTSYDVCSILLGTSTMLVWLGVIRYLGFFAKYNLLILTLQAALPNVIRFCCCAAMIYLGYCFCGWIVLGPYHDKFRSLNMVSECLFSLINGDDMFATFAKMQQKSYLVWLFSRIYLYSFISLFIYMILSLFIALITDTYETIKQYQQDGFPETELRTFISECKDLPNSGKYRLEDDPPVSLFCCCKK

[7] = viability loss in HEK293 cells – cell-based, plate reader, cherry-picked samples, cytotoxicity control, dose response (AID 743446); assay type: functional
cells [8] = assay type: functional, cell-based
[9] = molecular target: T6, Oxysterols receptor LXR-beta (Homo sapiens, UniProt P55055); assay type: functional, cell-based;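 also: Cell-based luminescence dose-response assay of agonist activity at LXR, run as a confirmatory counterscreen to a daf-12 agonist screen; HEK293 cells with Gal4-LXR fusion and GAL4-driven luciferase reporter; agonist potency from rising luciferase signal of a Gal4-LXR reporter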
T6 sequence (P55055 whole entry): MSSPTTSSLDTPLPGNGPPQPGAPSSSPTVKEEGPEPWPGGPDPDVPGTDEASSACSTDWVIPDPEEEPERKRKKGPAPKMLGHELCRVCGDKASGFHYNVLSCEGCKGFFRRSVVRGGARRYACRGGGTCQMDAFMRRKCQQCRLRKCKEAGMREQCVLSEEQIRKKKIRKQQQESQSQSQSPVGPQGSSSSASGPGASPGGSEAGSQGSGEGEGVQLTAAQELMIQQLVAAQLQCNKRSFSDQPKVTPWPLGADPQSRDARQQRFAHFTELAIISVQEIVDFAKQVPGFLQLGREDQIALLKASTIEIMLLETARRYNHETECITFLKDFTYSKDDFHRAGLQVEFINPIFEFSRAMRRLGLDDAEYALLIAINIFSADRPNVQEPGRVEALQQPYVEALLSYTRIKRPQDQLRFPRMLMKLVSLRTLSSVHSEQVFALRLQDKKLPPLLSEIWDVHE

[10] = toxicity toward HepG2 liver cells – cell-based, plate reader, cherry-pick, antagonist series, cytotoxicity control, dose response (AID 743416); assay type: functional
[11] = A549 cell cytotoxicity, dose response, cytotoxicity control, plate reader, cherry-pick, antagonist series (AID 743412); assay type: functional, cell-based
cells [12] = test: cells
cells [13] = assay type: functional, cell-based; remark: listed apart in the source
[14] = blockers of bursicon-stimulated LGR2 cAMP reporter – cell-based, HEK293, CRE-luciferase reporter, cherry pick, set 2, dose response (AID 743343); assay type: functional;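 also: transfected cells were stimulated with diluted bursicon conditioned medium after compound addition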
[15] = blockade of melanocortin 4 receptor signaling – cell-based, plate reader, cherry pick, counter-screen for LGR2 antagonist project, dose response (AID 743444); assay type: functional;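 also: transfected HEK 293 cells stimulated with alpha-MSH peptide; potency of inhibitors of the alpha-MSH evoked signal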
[16] = OVCAR-3 cell viability loss – plate reader, dry powder samples, PAX8 inhibitor project, dose response (AID 743044); assay type: functional, cell-based
[17] = OVCAR8 cell viability loss – plate reader, dry powder samples, PAX8 project, dose response (AID 743197); assay type: functional, cell-based; details: OVCAR-8
[18] = IGROV1 cell killing – plate reader, dry powder samples, PAX8 inhibitor project, dose response (AID 743043); assay type: functional, cell-based; details: IGROV-1
Paired box protein Pax-8 = Paired box protein Pax-8 (Homo sapiens, UniProt Q06710); test: PAX8 transcriptional activity inhibition in RMG-I – RMG-I cells, luciferase, cherry-pick, dose response (AID 687027); assay type: functional, cell-based;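 also: luciferase reporter driven by Pax8 target thyroperoxidase promoter measured by SteadyGlo luminescence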
Sequence of Paired box protein Pax-8 (Q06710 whole entry): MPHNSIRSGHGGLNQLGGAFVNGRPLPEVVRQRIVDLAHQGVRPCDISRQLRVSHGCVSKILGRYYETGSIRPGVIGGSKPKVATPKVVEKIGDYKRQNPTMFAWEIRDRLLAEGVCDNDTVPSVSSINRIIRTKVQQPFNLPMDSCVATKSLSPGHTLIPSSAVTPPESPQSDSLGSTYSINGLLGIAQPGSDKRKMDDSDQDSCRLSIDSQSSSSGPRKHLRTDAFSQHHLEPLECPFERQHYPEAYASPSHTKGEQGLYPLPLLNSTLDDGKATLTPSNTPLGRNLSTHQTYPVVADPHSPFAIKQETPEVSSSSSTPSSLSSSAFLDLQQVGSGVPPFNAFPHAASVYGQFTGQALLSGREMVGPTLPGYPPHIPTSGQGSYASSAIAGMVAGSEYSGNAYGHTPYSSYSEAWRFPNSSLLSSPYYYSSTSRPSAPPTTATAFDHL

Sequence of Ion channel NompC (Q7T1G6 whole entry): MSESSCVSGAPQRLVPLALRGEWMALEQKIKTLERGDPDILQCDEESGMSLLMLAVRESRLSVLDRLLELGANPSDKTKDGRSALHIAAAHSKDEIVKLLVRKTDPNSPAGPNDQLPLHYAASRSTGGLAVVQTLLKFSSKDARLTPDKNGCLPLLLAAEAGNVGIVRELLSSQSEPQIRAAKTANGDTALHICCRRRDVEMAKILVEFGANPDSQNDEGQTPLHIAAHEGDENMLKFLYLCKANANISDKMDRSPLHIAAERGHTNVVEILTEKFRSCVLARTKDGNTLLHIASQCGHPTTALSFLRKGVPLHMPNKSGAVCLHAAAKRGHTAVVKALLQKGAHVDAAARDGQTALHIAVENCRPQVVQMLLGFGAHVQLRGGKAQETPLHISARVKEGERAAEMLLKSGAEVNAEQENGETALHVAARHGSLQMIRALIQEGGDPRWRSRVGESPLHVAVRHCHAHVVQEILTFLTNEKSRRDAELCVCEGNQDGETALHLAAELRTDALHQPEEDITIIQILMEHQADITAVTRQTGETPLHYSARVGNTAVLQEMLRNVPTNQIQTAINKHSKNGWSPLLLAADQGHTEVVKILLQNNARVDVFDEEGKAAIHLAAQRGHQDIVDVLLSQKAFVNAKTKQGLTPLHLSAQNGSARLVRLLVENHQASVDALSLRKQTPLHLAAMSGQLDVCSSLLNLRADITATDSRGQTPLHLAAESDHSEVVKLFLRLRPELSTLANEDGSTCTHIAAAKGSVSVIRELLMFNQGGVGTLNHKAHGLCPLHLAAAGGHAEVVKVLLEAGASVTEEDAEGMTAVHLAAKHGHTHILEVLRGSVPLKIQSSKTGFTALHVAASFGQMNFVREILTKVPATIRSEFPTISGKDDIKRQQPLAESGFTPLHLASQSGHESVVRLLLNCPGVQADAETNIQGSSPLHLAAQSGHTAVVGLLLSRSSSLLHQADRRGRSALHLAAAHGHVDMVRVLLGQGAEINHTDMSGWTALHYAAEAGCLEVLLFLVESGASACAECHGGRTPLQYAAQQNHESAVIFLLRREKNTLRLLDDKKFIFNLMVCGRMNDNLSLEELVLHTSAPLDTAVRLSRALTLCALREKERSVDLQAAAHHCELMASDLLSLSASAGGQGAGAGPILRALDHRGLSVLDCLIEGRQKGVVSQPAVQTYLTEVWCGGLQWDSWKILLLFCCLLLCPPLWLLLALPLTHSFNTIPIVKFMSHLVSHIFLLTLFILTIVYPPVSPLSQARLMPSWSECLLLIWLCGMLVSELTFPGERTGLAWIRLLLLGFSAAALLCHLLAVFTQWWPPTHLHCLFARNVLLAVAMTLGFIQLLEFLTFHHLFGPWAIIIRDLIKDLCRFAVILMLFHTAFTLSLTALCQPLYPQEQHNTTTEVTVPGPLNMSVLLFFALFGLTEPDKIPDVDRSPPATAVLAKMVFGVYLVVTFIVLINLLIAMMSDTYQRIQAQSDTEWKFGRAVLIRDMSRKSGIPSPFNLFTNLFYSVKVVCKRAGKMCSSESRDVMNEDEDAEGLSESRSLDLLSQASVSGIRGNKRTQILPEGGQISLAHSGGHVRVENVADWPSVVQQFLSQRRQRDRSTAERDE
T4 sequence (P08659 whole entry): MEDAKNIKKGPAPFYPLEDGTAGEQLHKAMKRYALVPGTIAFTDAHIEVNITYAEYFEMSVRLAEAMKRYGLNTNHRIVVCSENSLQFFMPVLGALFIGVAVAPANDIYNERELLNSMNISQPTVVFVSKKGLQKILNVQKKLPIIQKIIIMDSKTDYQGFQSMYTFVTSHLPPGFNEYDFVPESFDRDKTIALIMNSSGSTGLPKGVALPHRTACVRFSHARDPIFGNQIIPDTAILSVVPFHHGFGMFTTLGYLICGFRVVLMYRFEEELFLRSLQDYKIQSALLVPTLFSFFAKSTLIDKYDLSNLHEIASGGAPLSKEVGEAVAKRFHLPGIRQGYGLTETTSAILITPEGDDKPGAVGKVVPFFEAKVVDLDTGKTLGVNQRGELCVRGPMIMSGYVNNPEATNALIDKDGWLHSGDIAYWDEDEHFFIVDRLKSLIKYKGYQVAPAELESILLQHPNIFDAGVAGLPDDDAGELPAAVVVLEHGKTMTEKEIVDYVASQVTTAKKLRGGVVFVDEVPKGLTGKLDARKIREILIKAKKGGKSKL
Sequence of Cytochrome P450 3A4 (P08684 whole entry): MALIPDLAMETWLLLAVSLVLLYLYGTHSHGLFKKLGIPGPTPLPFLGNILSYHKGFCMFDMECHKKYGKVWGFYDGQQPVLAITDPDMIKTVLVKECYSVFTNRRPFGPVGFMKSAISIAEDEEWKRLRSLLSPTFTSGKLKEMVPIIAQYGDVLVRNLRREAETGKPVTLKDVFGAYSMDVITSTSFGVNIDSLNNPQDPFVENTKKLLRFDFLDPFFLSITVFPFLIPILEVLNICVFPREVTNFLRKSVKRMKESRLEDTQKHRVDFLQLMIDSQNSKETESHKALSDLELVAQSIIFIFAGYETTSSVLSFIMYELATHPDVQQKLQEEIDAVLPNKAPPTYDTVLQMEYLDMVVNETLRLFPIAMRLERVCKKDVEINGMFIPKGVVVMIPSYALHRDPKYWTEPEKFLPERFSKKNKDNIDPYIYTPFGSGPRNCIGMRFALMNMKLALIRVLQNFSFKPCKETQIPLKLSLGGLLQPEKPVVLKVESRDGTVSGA
Sequence of Protein-tyrosine kinase 2-beta (Q14289 whole entry): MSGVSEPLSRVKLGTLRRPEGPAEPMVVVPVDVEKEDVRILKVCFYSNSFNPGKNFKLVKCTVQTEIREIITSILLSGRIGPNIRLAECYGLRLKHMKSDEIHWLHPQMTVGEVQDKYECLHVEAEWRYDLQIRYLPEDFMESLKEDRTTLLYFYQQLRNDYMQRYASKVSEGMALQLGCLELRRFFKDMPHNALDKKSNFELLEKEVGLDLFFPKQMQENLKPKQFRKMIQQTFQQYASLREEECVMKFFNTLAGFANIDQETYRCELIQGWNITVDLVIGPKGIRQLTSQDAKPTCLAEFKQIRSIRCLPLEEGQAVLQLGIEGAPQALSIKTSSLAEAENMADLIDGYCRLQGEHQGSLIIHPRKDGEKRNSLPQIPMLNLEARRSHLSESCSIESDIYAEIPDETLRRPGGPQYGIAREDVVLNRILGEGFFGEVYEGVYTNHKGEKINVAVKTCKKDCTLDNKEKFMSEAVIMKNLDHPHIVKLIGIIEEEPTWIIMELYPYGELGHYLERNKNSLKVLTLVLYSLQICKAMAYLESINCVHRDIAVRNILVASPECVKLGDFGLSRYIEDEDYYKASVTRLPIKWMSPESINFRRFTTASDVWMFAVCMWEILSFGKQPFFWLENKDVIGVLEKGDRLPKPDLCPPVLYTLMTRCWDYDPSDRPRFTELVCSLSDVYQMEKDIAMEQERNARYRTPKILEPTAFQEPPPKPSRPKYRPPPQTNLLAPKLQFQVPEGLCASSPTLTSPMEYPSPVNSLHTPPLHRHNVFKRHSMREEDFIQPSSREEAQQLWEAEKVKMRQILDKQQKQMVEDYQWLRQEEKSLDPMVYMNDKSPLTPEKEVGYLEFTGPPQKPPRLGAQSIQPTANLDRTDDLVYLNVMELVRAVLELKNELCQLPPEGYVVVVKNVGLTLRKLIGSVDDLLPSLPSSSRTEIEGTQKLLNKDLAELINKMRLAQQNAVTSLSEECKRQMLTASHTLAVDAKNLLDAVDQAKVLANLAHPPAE
Sequence of Cytochrome P450 2C19 (P33261 whole entry): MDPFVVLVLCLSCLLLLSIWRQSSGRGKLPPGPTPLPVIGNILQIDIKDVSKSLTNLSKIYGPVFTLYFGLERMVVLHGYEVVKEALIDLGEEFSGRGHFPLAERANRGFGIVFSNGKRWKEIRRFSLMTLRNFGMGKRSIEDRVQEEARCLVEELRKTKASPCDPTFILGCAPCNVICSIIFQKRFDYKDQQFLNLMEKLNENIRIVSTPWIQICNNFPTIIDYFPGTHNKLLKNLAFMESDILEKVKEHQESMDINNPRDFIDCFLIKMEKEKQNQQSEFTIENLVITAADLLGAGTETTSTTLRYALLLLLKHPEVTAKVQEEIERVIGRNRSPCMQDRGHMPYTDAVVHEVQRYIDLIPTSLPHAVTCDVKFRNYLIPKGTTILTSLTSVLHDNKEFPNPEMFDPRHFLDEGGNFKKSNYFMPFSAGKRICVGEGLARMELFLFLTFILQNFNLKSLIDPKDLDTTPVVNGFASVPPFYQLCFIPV

AC50 (Cytochrome P450 2C19): 1.12 µM (inconclusive)
IC50 [1]: > 69.5 µM (not active)
AC50 (Cytochrome P450 3A4): 17.8 µM (inconclusive)
SMILES: Cc1n[nH]c(C)c1N=Nc1cc(Cl)ccc1Cl

IC50 (Prothrombin): 0.949 µM (active)
SMILES: Cc1cc(=O)oc2cc(OC(=O)c3ccco3)ccc12

IC50 (Prothrombin): > 50 µM (not active)
SMILES: CCCn1c2c(c(O)c(C(=O)Nc3nccs3)c1=O)CCCC2

Ki (fMet-Leu-Phe receptor): 47.9 µM (inactive)
SMILES: Cc1ccc(C2C3=C(O)CC(C)(C)CC3=Nc3nc(S)nc(O)c32)cc1 (stereo unspecified)

IC50 (Prothrombin): 1.39 µM (active)
SMILES: O=C(CSc1nc(-c2ccccc2)nn1C(=O)c1ccccc1)Nc1cccc([N+](=O)[O-])c1

EC50 [2]: > 50 µM (not active)
SMILES: Cc1cc(NC(=O)CSc2nc3ccccc3[nH]2)no1

EC50 [2]: > 50 µM (not active)
SMILES: CCN(CC)S(=O)(=O)c1ccc(NC(=O)CN(c2cccc(F)c2)S(C)(=O)=O)cc1

AC50 (Cytochrome P450 1A2): 31.6 µM (inconclusive)
Ki (fMet-Leu-Phe receptor): 19 µM (inactive)
AC50 (Cytochrome P450 3A4): 25.1 µM (inconclusive)
SMILES: COc1ccc(CCN2C(=O)C(O)=C(C(=O)c3ccco3)C2c2cccs2)cc1OC (stereo unspecified)

EC50 [2]: > 50 µM (not active)
SMILES: Cc1nc(C)c(-c2csc(NCc3ccco3)n2)s1

IC50 [3]: 0.469 µM (active)
SMILES: CC(C)(C)c1ccc(C(=O)c2c[nH]c(C(=O)O)c2)cc1

SMILES: COc1cccc(-c2nc(-c3ccccn3)no2)c1
EC50 [4]: 6.27 µM (active)
EC50 [5]: 4.73 µM (active)
EC50 (HT-1080): > 50 µM (not active)
EC50 [6]: 8.12 µM (active)

Ki (fMet-Leu-Phe receptor): 12 µM (active)
SMILES: CCC(=O)Nc1c(C#N)c2nc3ccccc3nc2n1-c1ccccc1C

EC50 (Ion channel NompC): > 29.9 µM (not active)
EC50 (Mucolipin-3): 15.1 µM (not active)
SMILES: O=S(=O)(c1ccc2ccccc2c1)N1CCCCC1

SMILES: O=C(Nc1ccc2ccccc2c1)c1ccccc1O
AC50 [7]: 7.8 µM (active)
EC50 (cells [8]): > 350 µM (not active)
EC50 [9]: > 67.6 µM (inactive)
AC50 [10]: 6.27 µM (active)
AC50 [11]: > 52 µM (inactive)
EC50 (cells [12]): > 67.6 µM (inactive)
EC50 (cells [13]): 6.87 µM (active)
AC50 [14]: 7.6 µM (active)
AC50 [15]: 6.02 µM (active)

EC50 (Ion channel NompC): > 29.9 µM (not active)
EC50 (Mucolipin-3): 3.83 µM (active)
SMILES: Cc1ccc(S(=O)(=O)N2CCC(C)CC2)c([N+](=O)[O-])c1

EC50 (Ion channel NompC): > 29.9 µM (not active)
EC50 (Mucolipin-3): 6.34 µM (active)
SMILES: COc1ccc(CCNC(=O)COc2ccc(N(C)S(=O)(=O)c3ccc(Cl)cc3)cc2)cc1

SMILES: Cc1cc(-c2ccccc2)n2ncc(-c3ccccc3)c2n1
EC50 [9]: > 67.5 µM (inactive)
AC50 [10]: 39.3 µM (active)
AC50 [11]: > 52 µM (inactive)
EC50 (cells [12]): > 67.5 µM (inactive)
AC50 [14]: 4.98 µM (active)
AC50 [15]: 7.1 µM (active)

SMILES: Cc1csc(NC(=O)c2cc3c(s2)CCCC3)n1
EC50 [4]: 2.99 µM (active)
EC50 (HT-1080): 25.7 µM (active)

SMILES: C[C@@H]1CCCCO[C@H](CN(C)Cc2ccc(Cl)c(Cl)c2)[C@H](C)CN([C@@H](C)CO)C(=O)c2cc(NS(=O)(=O)c3ccc(Cl)cc3)ccc2O1
AC50 [16]: 24.6 µM (active)
AC50 [17]: 33.7 µM (active)
AC50 [18]: 49.7 µM (active)
AC50 (Paired box protein Pax-8): 6.76 µM (active)

SMILES: Cc1ccc(S(=O)(=O)Nc2ccc3c(c2)C(=O)N([C@@H](C)CO)C[C@H](C)[C@H](CN(C)Cc2ccc(C(F)(F)F)cc2)OCCCC[C@H](C)O3)cc1
AC50 [16]: 29.8 µM (active)
AC50 [17]: 25.4 µM (active)
AC50 [18]: 42.5 µM (active)
AC50 (Paired box protein Pax-8): 6.16 µM (active)

IC50 [3]: 5.72 µM (active)
SMILES: O=C(O)c1cc(N/N=C/c2cccnc2)ccc1Cl
